Experimental data reported in US20100048575A1, “NOVEL TETRACYCLIC INHIBITORS OF CYSTEINE PROTEASES, THE PHARMACEUTICAL COMPOSITIONS THEREOF AND THEIR THERAPEUTIC APPLICATIONS” (priority 2006, published 2010).

Columns and labels:
[1] = system: PC-3 prostate cancer cells; assay: PC3 cell viability and proliferation assay (MTS); type: cell-based; settings: Homo sapiens, 72 hours, mean of 3 independent experiments, read-out: PC3 GI50 D3
Procedure: PC-3 prostate cancer cells were obtained from ATCC, and maintained in F-12K medium containing 7% FBS and 1% penicillin/streptomycin. Cells were incubated at 37° C. in a humidified atmosphere containing 5% CO2.
(§1) Cell viability was assayed using the MTS technique in 96-well culture plates (CellTiter 96® Aqueous Non-Radioactive Cell Proliferation Assay, Promega) according to the manufacturer's instructions. MTS (3-(4,5-dimethyl-thiazol-2-yl)-5-(3-carboxymethoxyphenyl)-2-(4-sulfophenyl)-2H-tetrazolium) is a MTT-derived tetrazolium that is reduced in metabolically active cells into a soluble, cell-permeant formazan. The amount of formazan, detected by its absorbance at 492 nm is proportional to the number of living, metabolically active cells.
(§2) 2×10^3 PC3 cells were seeded per well. 24 hours later, the medium was changed and the cells treated in triplicate with the following concentrations of each compound: 10 μM-3.33 μM-1.11 μM-370 nM-123 nM-41 nM-14 nM and 5 nM. The compounds were diluted in 100% DMSO, whose final concentration on cells was kept at 0.5%.
(§3) Cells were incubated with the compounds for 72 hours, and their viability then assayed by the addition of MTS for 2 hours. Absorbance at 492 nm was measured directly from the 96-well culture plates. GI50 (Growth Inhibition 50) concentrations for each compound were calculated using a sigmoidal variable slope fit (Prism 4.0, Graphpad Softwares). Values represent mean of 3 independent experiments.

[2] = system: HCT116 colon cancer cells; assay: HCT116 cell viability and proliferation assay (MTS); type: cell-based; settings: Homo sapiens, HCT-116, 72 hours, mean of 3 independent experiments, read-out: HCT116 GI50 D3
Procedure: HCT116 colon cancer cells were obtained from ATCC (American Type Culture Collection), and maintained in Mc Coy's 5A medium containing 10% FBS, 3 mM glutamine and 1% penicillin/streptomycin. Cells were incubated at 37° C. in a humidified atmosphere containing 5% CO2.
as §1, with “(3-(4,5-dimethylthiazol-2-yl)-5-(3-carboxymethoxyphenyl)-2-(4-sulfophenyl)-2H-tetrazolium)” for “(3-(4,5-dimethyl-thiazol-2-yl)-5-(3-carboxymethoxyphenyl)-2-(4-sulfophenyl)-2H-tetrazolium)”
as §2, with “10^3 HCT116” for “2×10^3 PC3”
as §3

GI50 [1] [nM] | GI50 [2] [nM] | Compound
6150 | 1400 | CON=C1c2ccccc2-c2nn3c(C)nnc3nc21 (mixture of isomers) [5a, 3-Methyl-1,2,3a,4,10-pentaaza-cyclopenta[b]fluoren-9-one O-methyl-oxime]
6690 | 1640 | C=CCON=C1c2ccccc2-c2nn3c(C)nnc3nc21 (mixture of isomers) [5b, 3-Methyl-1,2,3a,4,10-pentaaza-cyclopenta[b]fluoren-9-one O-allyl-oxime]
2790 | 1010 | C=CCON=C1c2ccccc2-c2nn3c(CCCC)nnc3nc21 (mixture of isomers) [5d, 3-Butyl-1,2,3a,4,10-pentaaza-cyclopenta[b]fluoren-9-one O-allyl-oxime]
391 | 398 | CCCCCCCCCCON=C1c2ccccc2-c2nn3nnnc3nc21 (mixture of isomers) [8a, 1,2,3,3a, 4,10-Hexaaza-cyclopenta[b]fluoren-9-one O-decyl-oxime]
457 | 273 | COCCON=C1c2ccccc2-c2nn3nnnc3nc21 (mixture of isomers) [8b, 1,2,3,3a, 4,10-Hexaaza-cyclopenta[b]fluoren-9-one O-(2-methoxy-ethyl)-oxime]
502 | 265 | c1ccc(OCCCON=C2c3ccccc3-c3nn4nnnc4nc32)cc1 (mixture of isomers) [8c, 1,2,3,3a,4,10-Hexaaza-cyclopenta[b]fluoren-9-one O-(3-phenoxy-propyl)-oxime]
– | 3360 | CCc1nnc2nc3c(nn12)-c1ccccc1C3=NOC (mixture of isomers) [10b, 3-Ethyl-1,2,3a,4,10-pentaaza-cyclopenta[b]fluoren-9-one O-methyl-oxime]
– | 3930 | CCON=C1c2ccccc2-c2nn3c(CC)nnc3nc21 (mixture of isomers) [10d, 3-Ethyl-1,2,3a,4,10-pentaaza-cyclopenta[b]fluoren-9-one O-ethyl-oxime]
8400 | 2100 | C=CCON=C1c2ccccc2-c2nn3c(CC)nnc3nc21 (mixture of isomers) [10f, 3-Ethyl-1,2,3a,4,10-pentaaza-cyclopenta[b]fluoren-9-one O-allyl-oxime]
– | 1910 | CCc1nnc2nc3c(nn12)-c1ccccc1C3=NOCc1ccccc1 (mixture of isomers) [10h, 3-Ethyl-1,2,3a,4,10-pentaaza-cyclopenta[b]fluoren-9-one O-benzyl-oxime]
180 | 96 | C=CCON=C1c2ccccc2-c2nn3nnnc3nc21 (mixture of isomers) [compound 6, 1,2,3,3a,4,10-hexaaza-cyclopenta[b]fluoren-9-one O-allyl-oxime]
466 | 363 | ON=C1c2ccccc2-c2nn3nnnc3nc21 (mixture of isomers) [compound 7, 1,2,3,3a,4,10-hexaaza-cyclopenta[b]fluoren-9-one oxime]
